{"source": "patent US8084395B2", "about": "“4-aza indole derivatives and their use as fungicides” (Syngenta Crop Protection, Inc., priority 2007, dated 2011)", "data": [{"smiles": "Cc1cnc2c(-c3ccc(F)cc3)c(-c3ccncc3)[nH]c2c1", "note": "[Example 1, 3-(4-Fluoro-phenyl)-6-methyl-2-pyridin-4-yl-1H-pyrrolo[3,2-b]pyridine]", "values": [{"measurement": "melting point", "result": "127 to 128", "unit": "°C"}]}, {"smiles": "COCn1c(-c2ccncc2)c(-c2ccc(F)cc2)c2ncc(C)cc21", "note": "[Example 2, 3-(4-Fluoro-phenyl)-1-methoxymethyl-6-methyl-2-pyridin-4-yl-1H-pyrrolo[3,2-b]pyridine]", "values": [{"measurement": "melting point", "result": "208 to 209", "unit": "°C"}]}, {"smiles": "COCOn1c(-c2ccncc2)c(-c2ccc(F)cc2)c2ncccc21", "note": "[Example 5, 3-(4-Fluoro-phenyl)-1-methoxymethoxy-2-pyridin-4-yl-1H-pyrrolo[3,2-b]pyridine]", "values": [{"measurement": "melting point", "result": "169 to 170", "unit": "°C"}]}, {"smiles": "COC(=O)CC(=O)Nc1cc(-c2[nH]c3cc(C)cnc3c2-c2ccc(F)cc2)ccn1", "note": "[Example 8, N-{4-[3-(4-Fluoro-phenyl)-6-methyl-1H-pyrrolo[3,2-b]pyridin-2-yl]-pyridin-2-yl}-malonamic acid methyl ester]", "values": [{"measurement": "melting point", "result": "237 to 238", "unit": "°C"}]}, {"smiles": "FCCn1c(-c2ccnc(Nc3cccc(F)c3)c2)c(-c2ccc(F)cc2)c2ncccc21", "note": "[Example 9, {4-[1-(2-Fluoro-ethyl)-3-(4-fluoro-phenyl)-1H-pyrrolo[3,2-b]pyridin-2-yl]-pyridin-2-yl}-(3-fluoro-phenyl)-amine]", "values": [{"measurement": "melting point", "result": "255 to 256", "unit": "°C"}]}, {"smiles": "NC(=O)c1cc(-c2[nH]c3cccnc3c2-c2ccc(F)cc2)ccn1", "note": "[Example 10, 4-[3-(4-Fluoro-phenyl)-1H-pyrrolo[3,2-b]pyridin-2-yl]-pyridine-2-carboxylic acid amide]", "values": [{"measurement": "melting point", "result": "157 to 158", "unit": "°C"}]}, {"smiles": "Fc1ccc(-c2c(-c3ccncn3)[nH]c3cccnc23)cc1", "note": "[Example 11, 3-(4-Fluoro-phenyl)-2-pyrimidin-4-yl-1H-pyrrolo[3,2-b]pyridine]", "values": [{"measurement": "melting point", "result": "169 to 170", "unit": "°C"}]}, {"smiles": "COCC(C)Nc1nccc(-c2c(-c3ccc(F)cc3)c3ncccc3n2COC)n1", "note": "(centres unmarked) [Example 12, {4-[3-(4-Fluoro-phenyl)-1-methoxymethyl-1H-pyrrolo[3,2-b]pyridin-2-yl]-pyrimidin-2-yl}-(2-methoxy-1-methyl-ethyl)-amine]", "values": [{"measurement": "melting point", "result": "151 to 152", "unit": "°C"}]}]}
